Source: patent US5824679A, “Phosphanoxides--preparation and use” (Boehringer Mannheim GmbH, priority 1994, dated 1998)

Legend:
human α thrombin = molecular target: T1, human α thrombin (Homo sapiens, UniProt P00734); test: Thrombin inhibition, kinetic measurement with substrate H-(D)-Phe-Pro-Arg-pNA; type: biochemical; settings: 0.1M phosphate buffer, 0.2M sodium chloride, 0.5% polyethylene glycol 6000, pH=7.5, 25° C.
T1 construct: human α thrombin; purchased Sigma
Protocol: The kinetic measurements were carried out in 0.1M phosphate buffer that contained 0.2M sodium chloride and 0.5% polyethylene glycol 6000 at a pH=7.5 and 25° C. with the substrate H-(D)-Phe-Pro-Arg-pNA; Kabi and human α thrombin (Sigma, specific activity=2150 NIH-units/mg) in polystyrene semi-microcuvettes in a total volume of 1 ml.
In a preliminary test each active substance was determined as to whether it inhibits thrombin rapidly or slowly. For this the reaction was firstly started by adding 0.03 NIH units thrombin to a 100 μM solution of the substrate and the active substance. In a second experiment, substrate was added to a solution of thrombin and the active substance which had been incubated for 5 minutes. The increase in the concentration of p-nitroaniline with time was monitored spectroscopically (UV-VIS spectrophotometer Lambda-2 from the Perkin-Elmer Company) at 405 nm for 12 min.
Since the measured curves obtained in both experiments were linear and parallel, the active substances of the following table are rapid thrombin inhibitors.
The inhibition constants Ki were then determined as follows. The substrate was used at concentrations of 100 μM, 50 μM, 30 μM, 20 μM and at each substrate concentration a measurement was carried out without inhibitor and three measurements were carried out in the presence of various concentrations of the inhibitors listed in the following table. The reactions were started by adding thrombin. The increase in absorbance at 405 nm due to the formation of p-nitroaniline was monitored over a time period of 12 minutes. Measurement points (time versus absorbance) were transferred to a PC at intervals of 20 seconds. The rates VO (change in absorbance per second; measurements without inhibitor) and Vi (measurements with inhibitor) were determined by linear regression. Only that part of the measurement was used in which the substrate concentration had decreased by less than 15%. Km ' and Vmax were determined from a measurement series (constant inhibitor concentration, variable substrate concentrations) by a non-linear fit to the equation [formula]
Finally Ki was calculated from the entire series of measurements by a non-linear fit to the equation [formula]
The Michaelis constant Km was 3.8±2 μm in all measurements.
The inhibition constants Ki of the active substances are stated in the following table in units of μM.

horse thrombin = test: Thrombin time (clotting of human citrate plasma on addition of thrombin reagent, ball coagulometer); type: biochemical, human plasma; horse thrombin; settings: 37° C., difference to control (ca. 24 sec); for TT0.5 (thrombin time, difference to the control): 0.5 μM in human plasma; for TT5 (thrombin time, difference to the control): 5 μM in human plasma
Protocol: A conventional test in clinical coagulation diagnostics is the thrombin time. This parameter measures the action of thrombin on fibrinogen and the formation of clots. Inhibitors of thrombin result in an extended thrombin time.
In order to obtain plasma 9 parts of fresh blood from healthy donors was mixed with one part of sodium citrate solution (0.11 mol/l) and it was centrifuged for 10 minutes at room temperature at ca. 3000 r.p.m. The plasma was removed by pipette and can be stored at room temperature for ca. 8 hours.
200 μl citrate plasma was incubated for 2 minutes at 37° C. in a ball coagulometer (KC10 from the Amelung Company). 10 μl dimethylsulfoxide (DMSO) or a solution of the active substance in DMSO was added to 190 μl pre-heated thrombin reagent (Boehringer Mannheim GmbH; contains ca. 3 U/ml horse thrombin and 0.0125M Ca^++). On addition of 200 μl of this solution to the plasma a stopwatch was started and the time at which coagulation starts was determined.
The measured thrombin times in seconds are given in the following table as a difference to the control. The concentrations of the active substances in human plasma were 5 μM (TT5) and 0.5 μM (TT0.5).

Compound | Ki (human α thrombin) [nM] | TT0.5 (thrombin time, difference to the control) (horse thrombin) [s] | TT5 (thrombin time, difference to the control) (horse thrombin) [s]
Cc1cc(OCCNc2ccncc2)cc(N(CP(C)(C)=O)S(=O)(=O)c2ccccc2)c1 [Example 1, N-(Dimethyloxophosphinylmethyl)-N-{3-methyl-5-[2-(pyridin-4-ylamino)-ethoxyl]-phenyl}-benzene sulfonamide] | 100 | 33 | 175
CCCCOc1ccccc1S(=O)(=O)N(CP(C)(C)=O)c1cc(C)cc(OCCNc2ccncc2)c1 [Example 3, N-(Dimethyloxophosphinylmethyl)-N-{3-methyl-5-[2-(pyridin-4-ylamino)-ethoxyl]-phenyl}-2-butoxy-benzene-sulfonamide] | 4 | 50 | 300
CCCOc1ccccc1S(=O)(=O)N(CP(C)(C)=O)c1cc(C)cc(OCCNc2ccnnc2)c1 [Example 6] | 28 | 18 | 122
CCOc1ccccc1S(=O)(=O)N(CP(C)(C)=O)c1cc(C)cc(OCCNc2ccnnc2)c1 [Example 7] | 60 | 14 | 109
Cc1cc(OCCNc2ccnnc2)cc(N(CP(C)(C)=O)S(=O)(=O)c2ccccc2OC(C)C)c1 [Example 8] | 35 | 47 | 180

More lines, in order of falling Ki (human α thrombin), values ahead:

Ki (human α thrombin) [nM] | Compound | TT0.5 (thrombin time, difference to the control) (horse thrombin) [s] | TT5 (thrombin time, difference to the control) (horse thrombin) [s]
12 | CCCCCCOc1ccccc1S(=O)(=O)N(CP(C)(C)=O)c1cc(C)cc(OCCNc2ccncc2)c1 [Example 4, N-(Dimethyloxophosphinylmethyl)-N-{3-methyl-5-[2-(pyridin-4-ylamino)-ethoxyl]-phenyl}-2-hexyloxy-benzene-sulfonamide] | 11 | 113
8 | COc1ccccc1S(=O)(=O)N(CP(C)(C)=O)c1cc(C)cc(OCCNc2ccncc2)c1 [Example 2, N-(Dimethyloxophosphinvlmethyl)-N-{3-methyl-5-[2-(pyridin-4-ylamino)-ethoxyl]-phenyl}-2-methoxy-benzene-sulfonamide] | 115 | 300
